Experimental data as given in patent US20230365561A1, “BETA-LACTAMASE INHIBITORS AND THEIR PREPARATION” (NINGXIA ACADEMY OF AGRICUL TURE AND FORESTRY SCIENCES, priority 2020, published 2023).
Where a name gives a salt, the structure may show the parent alone. Read-outs that look alike come from different tables or passages of the source.

Tests used:
Type in all cases: cell-based
[1] = test system: A. baumannii clinical isolate (strain 7); assay: MIC by broth microdilution (alone and in combination with meropenam), strain 7; conditions: Acinetobacter baumannii, compound alone
Procedure: (§1) Compounds of the present invention alone, meropenam (MER) alone, and as a combination with test antibiotic (meropenam) were tested for antimicrobial activity by determing minimum inhibitory concentration (MIC, mg/L) using the broth microdilution method according to the guidelines of the Clinical Laboratories and Stansards Insitute (“Methods for Dilution Antimicrobial Suscetibility Tests for Bacterial that Grow Aerobiclly”, Approved standard, […]., Clinical and Laboratories Stanards Institute (CLSI) Document M7-A8, Wayne, Pa., USA, 2009). Meropenam as a test antibiotic compound was dissolved in DMSO. Meropenam was then diluted in microbial growth medium (Mueller-Hinton Broth II, cation adjusted) resulting in a final concention range of 0.125-64 mg/L in serial two-fold dilution. In all cases the filnal DMSO concentraion was less than 0.5%. Bacteria were added to 96-well microtitre plates containing the serial two-fold dilutions of the compoumds; the final cell density was appoximately 5x10^5 colony forming units/mL (CFU/mL). Plates were incubated at 37° C. for 18-24 hours and read visually. The MIC, i.e. the lowest concentration of the test compound that inhibited visible growth of the bacteria, was recorded. The same assay conditions were used when the compounds of present invention alone, and as a combination with test meropenam antibiotic compound was tested for minmum inhibitory concentration (MIC, mg/L). Whileest meropenam was serially diluted as descrribed above, a constant concentration of the present invention of 4 µg/mL was used.
(§2) Bacterial strains that were used to evaluate the antimicrobial activity using the MIC determination included but were not limited to E. coli clinical isolate (strain 1), E. coli 8739 (strain 2), K. pneumoniae clinical isolate (strain 3), K. pneumoniae 700603 (strain 4), E. cloacae clinical isolate (strain 5), E. cloacae 700323 (strain 6), A. baumannii clinical isolate (strain 7), A. baumannii 19606 (strain 8), P. aeruginosa clinical isolate (strain 9), P. aeruginosa 9027 (strain 10).

[2] = test system: P. aeruginosa clinical isolate (strain 9); assay: MIC by broth microdilution (alone and in combination with meropenam), strain 9; conditions: Pseudomonas aeruginosa, compound alone
Procedure: as §1, §2

[3] = test system: K. pneumoniae 700603 (strain 4); assay: MIC by broth microdilution (alone and in combination with meropenam), strain 4; conditions: Klebsiella pneumoniae, compound alone
Procedure: as §1, §2

E. coli 8739 (strain 2) = assay: MIC by broth microdilution (alone and in combination with meropenam), strain 2; conditions: Escherichia coli, compound alone
Procedure: as §1, §2

[4] = test system: A. baumannii 19606 (strain 8); assay: MIC by broth microdilution (alone and in combination with meropenam), strain 8; conditions: Acinetobacter baumannii, compound alone
Procedure: as §1, §2

[5] = test system: P. aeruginosa 9027 (strain 10); assay: MIC by broth microdilution (alone and in combination with meropenam), strain 10; conditions: Pseudomonas aeruginosa, compound alone
Procedure: as §1, §2

[6] = test system: E. cloacae 700323 (strain 6); assay: MIC by broth microdilution (alone and in combination with meropenam), strain 6; conditions: Enterobacter cloacae, compound alone
Procedure: as §1, §2

[7] = test system: K. pneumoniae clinical isolate (strain 3); assay: MIC by broth microdilution (alone and in combination with meropenam), strain 3; conditions: Klebsiella pneumoniae, compound alone
Procedure: as §1, §2

[8] = test system: E. cloacae clinical isolate (strain 5); assay: MIC by broth microdilution (alone and in combination with meropenam), strain 5; conditions: Enterobacter cloacae, compound alone
Procedure: as §1, §2

[9] = test system: E. coli clinical isolate (strain 1); assay: MIC by broth microdilution (alone and in combination with meropenam), strain 1; conditions: Escherichia coli, compound alone
Procedure: as §1, §2

[10] = read-out: MIC, antibacterial activity of example alone

Measured: MIC

N=C(NC(=O)CCc1ccccn1)[C@@H]1CC[C@@H]2CN1C(=O)N2OS(=O)(=O)[O-].[Na+] [Ex.13, Sodium (2S,5R)-7-oxo-2-(N-(3-(pyridin-2-yl)propanoyl)carbamimidoyl)-1,6-diazabicyclo[3.2.1]octan-6-yl Sulfate]
> 64 mg/L: [1]; [10] | [2]; [10] | [3]; [10] | E. coli 8739 (strain 2); [10] | [4]; [10] | [5]; [10] | [6]; [10] | [7]; [10] | [8]; [10] | [9]; [10]

N=C(N)NCCC(=O)NC(=N)[C@@H]1CC[C@@H]2CN1C(=O)N2OS(=O)(=O)O [Ex.51, (2S,5R)-2-(N-(3-guanidinopropanoyl)carbamimidoyl)-7-oxo-1,6-diazabicyclo[3.2.1]octan-6-yl Hydrogen Sulfate]
> 64 mg/L: [1]; read-out: MIC | [2]; read-out: MIC | [3]; read-out: MIC | E. coli 8739 (strain 2); read-out: MIC | [4]; read-out: MIC | [5]; read-out: MIC | [6]; read-out: MIC | [7]; read-out: MIC | [8]; read-out: MIC | [9]; read-out: MIC

CC(=O)NCCC(=O)NC(=N)[C@@H]1CC[C@@H]2CN1C(=O)N2OS(=O)(=O)[O-].[Na+] [Ex.19, Sodium (2S,5R)-2-(N-(3-acetamidopropanoyl)carbamimidoyl)-7-oxo-1,6-diazabicyclo[3.2.1]octan-6-yl Sulfate]
> 64 mg/L: [1]; [10] | [2]; [10] | [3]; [10] | E. coli 8739 (strain 2); [10] | [4]; [10] | [5]; [10] | [6]; [10] | [7]; [10] | [8]; [10] | [9]; [10]

N=C(NC(=O)c1cnco1)[C@@H]1CC[C@@H]2CN1C(=O)N2OS(=O)(=O)[O-].[Na+] [Ex.21, Sodium (2S,5R)-2-(N-(oxazole-5-carbonyl)carbamimidoyl)-7-oxo-1,6-diazabicyclo[3.2.1]octan-6-yl Sulfate]
> 64 mg/L: [1]; [10] | [2]; [10] | [3]; [10] | E. coli 8739 (strain 2); [10] | [4]; [10] | [5]; [10] | [6]; [10] | [7]; [10] | [8]; [10] | [9]; [10]

N=C(NC(=O)c1ccc(F)cc1)[C@@H]1CC[C@@H]2CN1C(=O)N2OS(=O)(=O)O [Ex.17, (2S,5R)-2-(N-(4-fluorobenzoyl)carbamimidoyl)-7-oxo-1,6-diazabicyclo[3.2.1]octan-6-yl Hydrogen Sulfate]
> 64 mg/L: [1]; [10] | [2]; [10] | [3]; [10] | E. coli 8739 (strain 2); [10] | [4]; [10] | [5]; [10] | [6]; [10] | [7]; [10] | [8]; [10] | [9]; [10]

N=C(NC(=O)c1nc(-c2ccccc2)cs1)[C@@H]1CC[C@@H]2CN1C(=O)N2OS(=O)(=O)[O-].[Na+] [Ex.44, Sodium (2S,5R)-7-oxo-2-(N-(4-phenylthiazole-2-carbonyl)carbamimidoyl)-1,6-diazabicyclo[3.2.1]octan-6-yl Sulfate]
> 64 mg/L: [1]; [10] | [2]; [10] | [3]; [10] | E. coli 8739 (strain 2); [10] | [4]; [10] | [5]; [10] | [6]; [10] | [7]; [10] | [8]; [10] | [9]; [10]

CC(=O)N1CCC[C@@H](C(=O)NC(=N)[C@@H]2CC[C@@H]3CN2C(=O)N3OS(=O)(=O)[O-])C1.[Na+] [Ex.27, Sodium (2S,5R)-2-(N-((R)-1-acetylpiperidine-3-carbonyl)carbamimidoyl)-7-oxo-1,6-diazabicyclo[3.2.1]octan-6-yl Sulfate]
> 64 mg/L: [1]; [10] | [2]; [10] | [3]; [10] | E. coli 8739 (strain 2); [10] | [4]; [10] | [5]; [10] | [6]; [10] | [7]; [10] | [8]; [10] | [9]; [10]

N=C(NC(=O)c1ccncc1)[C@@H]1CC[C@@H]2CN1C(=O)N2OS(=O)(=O)O [Ex.7, (2S,5R)-2-(N-isonicotinoylcarbamimidoyl)-7-oxo-1,6-diazabicyclo[3.2.1]octan-6-yl Hydrogen Sulfate]
> 64 mg/L: [1]; [10] | [2]; [10] | [3]; [10] | E. coli 8739 (strain 2); [10] | [4]; [10] | [5]; [10] | [6]; [10] | [7]; [10] | [8]; [10] | [9]; [10]

CN1CCC(C(=O)NC(=N)[C@@H]2CC[C@@H]3CN2C(=O)N3OS(=O)(=O)[O-])CC1.[Na+] [Ex.41, Sodium (2S,5R)-2-(N-(1-methylpiperidine-4-carbonyl)carbamimidoyl)-7-oxo-1,6-diazabicyclo[3.2.1]octan-6-yl Sulfate]
> 64 mg/L: [1]; [10] | [2]; [10] | [3]; [10] | E. coli 8739 (strain 2); [10] | [4]; [10] | [5]; [10] | [6]; [10] | [7]; [10] | [8]; [10] | [9]; [10]

N=C(NC(=O)C1CCCCC1)[C@@H]1CC[C@@H]2CN1C(=O)N2OS(=O)(=O)[O-].[Na+] [Ex.37, Sodium (2S,5R)-2-(N-(cyclohexanecarbonyl)carbamimidoyl)-7-oxo-1,6-diazabicyclo[3.2.1]octan-6-yl Sulfate]
> 64 mg/L: [1]; [10] | [2]; [10] | [3]; [10] | E. coli 8739 (strain 2); [10] | [4]; [10] | [5]; [10] | [6]; [10] | [7]; [10] | [8]; [10] | [9]; [10]

N=C(NC(=O)c1ccncn1)[C@@H]1CC[C@@H]2CN1C(=O)N2OS(=O)(=O)[O-].[Na+] [Ex.48, Sodium (2S,5R)-7-oxo-2-(N-(pyrimidine-4-carbonyl)carbamimidoyl)-1,6-diazabicyclo[3.2.1]octan-6-yl Sulfate]
> 64 mg/L: [1]; read-out: MIC | [2]; read-out: MIC | [3]; read-out: MIC | E. coli 8739 (strain 2); read-out: MIC | [4]; read-out: MIC | [5]; read-out: MIC | [6]; read-out: MIC | [7]; read-out: MIC | [8]; read-out: MIC | [9]; read-out: MIC

CC(=O)N1CCCC[C@@H]1C(=O)NC(=N)[C@@H]1CC[C@@H]2CN1C(=O)N2OS(=O)(=O)[O-].[Na+] [Ex.46, Sodium (2S,5R)-2-(N-((R)-1-acetylpiperidine-2-carbonyl)carbamimidoyl)-7-oxo-1,6-diazabicyclo[3.2.1]octan-6-yl Sulfate]
> 64 mg/L: [1]; read-out: MIC | [2]; read-out: MIC | [3]; read-out: MIC | E. coli 8739 (strain 2); read-out: MIC | [4]; read-out: MIC | [5]; read-out: MIC | [6]; read-out: MIC | [7]; read-out: MIC | [8]; read-out: MIC | [9]; read-out: MIC

N=C(NC(=O)c1ccc(C(F)(F)F)cn1)[C@@H]1CC[C@@H]2CN1C(=O)N2OS(=O)(=O)[O-].[Na+] [Ex.50, Sodium (2S,5R)-7-oxo-2-(N-(5-(trifluoromethyl)picolinoyl)carbamimidoyl)-1,6-diazabicyclo[3.2.1]octan-6-yl Sulfate]
> 64 mg/L: [1]; read-out: MIC | [2]; read-out: MIC | [3]; read-out: MIC | E. coli 8739 (strain 2); read-out: MIC | [4]; read-out: MIC | [5]; read-out: MIC | [6]; read-out: MIC | [7]; read-out: MIC | [8]; read-out: MIC | [9]; read-out: MIC

CC(=O)N1CC[C@H](C(=O)NC(=N)[C@@H]2CC[C@@H]3CN2C(=O)N3OS(=O)(=O)[O-])C1.[Na+] [Ex.30, Sodium (2S,5R)-2-(N-((S)-1-acetylpyrrolidine-3-carbonyl)carbamimidoyl)-7-oxo-1,6-diazabicyclo[3.2.1]octan-6-yl Sulfate]
> 64 mg/L: [1]; [10] | [2]; [10] | [3]; [10] | E. coli 8739 (strain 2); [10] | [4]; [10] | [5]; [10] | [6]; [10] | [7]; [10] | [8]; [10] | [9]; [10]

N=C(NC(=O)CN1CCCCC1)[C@@H]1CC[C@@H]2CN1C(=O)N2OS(=O)(=O)[O-].[Na+] [Ex.35, Sodium (2S,5R)-7-oxo-2-(N-(2-(piperidin-1-yl)acetyl)carbamimidoyl)-1,6-diazabicyclo[3.2.1]octan-6-yl Sulfate]
> 64 mg/L: [1]; [10] | [2]; [10] | [3]; [10] | E. coli 8739 (strain 2); [10] | [4]; [10] | [5]; [10] | [6]; [10] | [7]; [10] | [8]; [10] | [9]; [10]
